{"source": "ChEMBL document CHEMBL1649434", "about": "“Regulation of mprF in daptomycin-nonsusceptible Staphylococcus aureus strains” (2009)", "key": {"[1]": {"test_system": "Staphylococcus aureus", "assay": "microbe, parasite or virus in culture", "settings": "isolate 616", "description": "Antimicrobial activity against Staphylococcus aureus isolate 616 by Etest"}, "[2]": {"test_system": "Staphylococcus aureus", "assay": "Antimicrobial activity against Staphylococcus aureus isolate 701 harboring mprF C884A mutant gene by Etest", "assay_type": "functional"}, "[3]": {"test_system": "Staphylococcus aureus", "assay": "Antimicrobial activity against Staphylococcus aureus isolate 703 harboring mprF C884A mutant gene by Etest", "assay_type": "functional"}, "[4]": {"test_system": "Staphylococcus aureus", "assay": "Antimicrobial activity against Staphylococcus aureus isolate 629 by Etest", "assay_type": "functional"}}, "data": [{"smiles": "CCCCCCCCCC(=O)N[C@@H](Cc1c[nH]c2ccccc12)C(=O)N[C@H](CC(N)=O)C(=O)N[C@@H](CC(=O)O)C(=O)N[C@@H]1C(=O)NCC(=O)N[C@@H](CCCN)C(=O)N[C@@H](CC(=O)O)C(=O)N[C@H](C)C(=O)N[C@@H](CC(=O)O)C(=O)NCC(=O)N[C@H](CO)C(=O)N[C@@H]([C@H](C)CC(=O)O)C(=O)N[C@@H](CC(=O)c2ccccc2N)C(=O)O[C@@H]1C", "values": [{"measurement": "MIC", "setting": "[1]", "result": 0.5, "unit": "µg/mL"}, {"measurement": "MIC", "setting": "[2]", "result": 2, "unit": "µg/mL"}, {"measurement": "MIC", "setting": "[3]", "result": 2, "unit": "µg/mL"}, {"measurement": "MIC", "setting": "[4]", "result": 0.75, "unit": "µg/mL"}]}]}
